Where “and” joins values, the source holds several entries; their conditions need not be identical. Equal values may be shown once. Inconclusive results and toxic doses are left out. Cut-off read from the data, not from the text of the source: active = T/C of 150% or more; inactive = T/C below 125%.
Test system: L1210 leukemia ip in BDF1 mice, survival T/C
Assay: NCI In Vivo Anticancer Drug Screen. Data for tumor model L1210 Leukemia (intraperitoneal) in B6D2F1 (BDF1) mice
Conditions: endpoint: mean survival time, higher = longer survival
Outline: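 Antitumor effect is assessed in tumor-bearing animals. Survival in the compound arm is compared with a vehicle-dosed control arm and expressed as their quotient.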

[1] = dose: 100.0 mg/kg/injection, schedule: Q01DX001 (ip), vehicle: saline with Tween-80
[2] = dose: 200.0 mg/kg/injection, schedule: Q01DX001 (ip), vehicle: saline with Tween-80
[3] = dose: 100.0 mg/kg/injection, schedule: Q04DX003 (ip), vehicle: saline
[4] = dose: 200.0 mg/kg/injection, schedule: Q04DX003 (ip), vehicle: saline
[5] = dose: 100.0 mg/kg/injection, schedule: Q01DX001 (ip), vehicle: Klucel (hydroxypropylcellulose) (HPC)
[6] = dose: 200.0 mg/kg/injection, schedule: Q01DX001 (ip), vehicle: Klucel (hydroxypropylcellulose) (HPC)
[7] = dose: 400.0 mg/kg/injection, schedule: Q01DX001 (ip), vehicle: Klucel (hydroxypropylcellulose) (HPC)
[8] = dose: 200.0 mg/kg/injection, schedule: Q01DX001 (ip), vehicle: carboxymethylcellulose (CMC)
[9] = dose: 400.0 mg/kg/injection, schedule: Q01DX001 (ip), vehicle: carboxymethylcellulose (CMC)
[10] = dose: 100.0 mg/kg/injection, schedule: Q01DX009 (ip), vehicle: Klucel (hydroxypropylcellulose) (HPC)
[11] = dose: 100.0 mg/kg/injection, schedule: Q04DX003 (ip), vehicle: Klucel (hydroxypropylcellulose) (HPC)
[12] = dose: 200.0 mg/kg/injection, schedule: Q01DX009 (ip), vehicle: Klucel (hydroxypropylcellulose) (HPC)
[13] = dose: 200.0 mg/kg/injection, schedule: Q04DX003 (ip), vehicle: Klucel (hydroxypropylcellulose) (HPC)
[14] = dose: 400.0 mg/kg/injection, schedule: Q01DX009 (ip), vehicle: Klucel (hydroxypropylcellulose) (HPC)
[15] = dose: 400.0 mg/kg/injection, schedule: Q04DX003 (ip), vehicle: Klucel (hydroxypropylcellulose) (HPC)
[16] = dose: 50.0 mg/kg/injection, schedule: Q01DX009 (ip), vehicle: saline
[17] = dose: 50.0 mg/kg/injection, schedule: Q04DX003 (ip), vehicle: saline
[18] = dose: 100.0 mg/kg/injection, schedule: Q01DX009 (ip), vehicle: saline
[19] = dose: 100.0 mg/kg/injection, schedule: Q01DX001 (ip), vehicle: saline
[20] = dose: 200.0 mg/kg/injection, schedule: Q01DX001 (ip), vehicle: saline
[21] = dose: 400.0 mg/kg/injection, schedule: Q01DX001 (ip), vehicle: saline
[22] = dose: 400.0 mg/kg/injection, schedule: Q04DX003 (ip), vehicle: saline
[23] = dose: 100.0 mg/kg/injection, schedule: Q04DX003 (ip), vehicle: saline with Tween-80
[24] = dose: 200.0 mg/kg/injection, schedule: Q04DX003 (ip), vehicle: saline with Tween-80
[25] = dose: 400.0 mg/kg/injection, schedule: Q04DX003 (ip), vehicle: saline with Tween-80
[26] = dose: 25.0 mg/kg/injection, schedule: Q01DX009 (ip), vehicle: saline

Measured: T/C

NCC1OCOC2C(C(=O)O)OCOC12 (stereo not given)
inactive: dose: 50.0 mg/kg/injection, schedule: Q04DX002 (ip), vehicle: saline 101 % of control | dose: 100.0 mg/kg/injection, schedule: Q04DX002 (ip), vehicle: saline 96 % of control | dose: 200.0 mg/kg/injection, schedule: Q04DX002 (ip), vehicle: saline 101 % of control | dose: 400.0 mg/kg/injection, schedule: Q04DX002 (ip), vehicle: saline 96 % of control

CC1(C)C2CCC(I)(C2)C1O (stereo not given)
inactive: [1] 105 % of control | [2] 100 % of control | dose: 400.0 mg/kg/injection, schedule: Q01DX001 (ip), vehicle: saline with Tween-80 105 % of control

O=C(O)c1ccnc(-c2ccc(Cl)cc2)c1
inactive: [3] 90 % of control | [4] 92 % of control

Cc1c(-c2nc(SCC(=O)NN)n[nH]2)no[n+]1[O-]
inactive: dose: 25.0 mg/kg/injection, schedule: Q04DX002 (ip), vehicle: Klucel (hydroxypropylcellulose) (HPC) 102 % of control | dose: 50.0 mg/kg/injection, schedule: Q04DX002 (ip), vehicle: Klucel (hydroxypropylcellulose) (HPC) 91 % of control | dose: 100.0 mg/kg/injection, schedule: Q04DX002 (ip), vehicle: Klucel (hydroxypropylcellulose) (HPC) 98 % of control

O=C(O)C1C2C=CC(C2)C1C(F)(F)C(F)(F)C(F)(F)F (stereo not given)
inactive: [5] 102 % of control | [6] 102 % of control | [7] 93 % of control

COc1c(OC)c(OC)c2c(c1OC)c(=O)c1ccccc1n2C
inactive: dose: 50.0 mg/kg/injection, schedule: Q01DX001 (ip), vehicle: carboxymethylcellulose (CMC) 93 % of control | dose: 100.0 mg/kg/injection, schedule: Q01DX001 (ip), vehicle: carboxymethylcellulose (CMC) 102 % of control | [8] 96 % of control | [9] 98 % of control

O=C(Nc1c[nH]c(=O)[nH]c1=O)Oc1ccccc1
inactive: [10] 98 % of control | [11] 100 % of control | [12] 95 % of control | [13] 88 % of control | [14] 93 % of control | [15] 100 % of control

C/C=C/CC1(Cc2ccccc2)C(=O)NC(=S)NC1=O
inactive: dose: 10.0 mg/kg/injection, schedule: Q01DX001 (ip), vehicle: saline 102 % of control | dose: 20.0 mg/kg/injection, schedule: Q01DX001 (ip), vehicle: saline 111 % of control

CC(C)=NOC(C)C(=O)O (stereo not given)
inactive: [16] 94 % of control and 101 % of control | [17] 95 % of control | dose: 75.0 mg/kg/injection, schedule: Q01DX001 (ip), vehicle: saline 101 % of control and 98 % of control | [18] 91 % of control and 97 % of control | [3] 100 % of control and 98 % of control | dose: 150.0 mg/kg/injection, schedule: Q01DX001 (ip), vehicle: saline 103 % of control and 106 % of control | dose: 200.0 mg/kg/injection, schedule: Q01DX009 (ip), vehicle: saline 92 % of control and 103 % of control | [4] 97 % of control and 95 % of control | dose: 300.0 mg/kg/injection, schedule: Q01DX001 (ip), vehicle: saline 114 % of control

O=c1[nH]nc(CCc2ccccc2)o1
inactive: [19] 97 % of control | [3] 98 % of control | [20] 92 % of control | [4] 93 % of control | [21] 95 % of control | [22] 113 % of control

COC(=O)C1(C)CCC(c2ccc(OC)cc2)C(CC(=O)O)C1=O (stereo not given)
inactive: [18] 93 % of control | [3] 95 % of control | [4] 98 % of control | dose: 400.0 mg/kg/injection, schedule: Q01DX009 (ip), vehicle: saline 90 % of control | [22] 93 % of control

CC1(C)N=C(N)N=C(N)N1c1ccc(CC(C(=O)Nc2ccc(S(=O)(=O)F)cc2)c2cccc3ccccc23)cc1 (stereo not given)
inactive: [5] 95 % of control | [6] 89 % of control | [7] 89 % of control

CCCCCCCCCCCCCCCCOc1ccc(C(=O)OC)cc1[N+](=O)[O-]
inactive: [23] 94 % of control | [24] 90 % of control | [25] 87 % of control

CCOC(=O)c1cnc(SC)nc1NNc1ccc([N+](=O)[O-])cc1
inactive: [1] 90 % of control | [2] 92 % of control

CC(CCl)=C(B1OC(C)(C)C(C)(C)O1)B1OC(C)(C)C(C)(C)O1
inactive: [5] 110 % of control | [6] 94 % of control | [7] 92 % of control

O=C(Oc1ccc(Cl)cc1)c1ccc(C(=O)Oc2ccc(Cl)cc2)cc1
inactive: dose: 75.0 mg/kg/injection, schedule: Q01DX009 (ip), vehicle: saline sonified 93 % of control | [11] 100 % of control | dose: 150.0 mg/kg/injection, schedule: Q01DX009 (ip), vehicle: saline sonified 91 % of control | [13] 97 % of control | dose: 300.0 mg/kg/injection, schedule: Q01DX009 (ip), vehicle: saline sonified 87 % of control | [15] 92 % of control

Cc1cc(C)[n+]([O-])c(C)c1[N+](=O)[O-]
inactive: [19] 101 % of control | [20] 101 % of control

Cc1ccc(NC(=O)c2ccccc2-c2ccccc2C(=O)Nc2ccc(C)cc2)cc1
inactive: dose: 100.0 mg/kg/injection, schedule: Q01DX001 (ip), vehicle: other 91 % of control

Cc1nsc(N)n1
inactive: dose: 12.5 mg/kg/injection, schedule: Q01DX009 (ip), vehicle: saline 108 % of control | [26] 105 % of control | [16] 100 % of control | [19] 92 % of control | [11] 102 % of control | [20] 100 % of control | [13] 113 % of control | [21] 101 % of control | [15] 104 % of control

CCCCCCCCCC(=O)N1CCOCC1
inactive: [26] 98 % of control | dose: 25.0 mg/kg/injection, schedule: Q04DX003 (ip), vehicle: saline 97 % of control | [16] 113 % of control | [17] 101 % of control | [3] 94 % of control and 89 % of control

CCCCCCCCC1CCCCC1
inactive: dose: 50.0 mg/kg/injection, schedule: Q04DX002 (sc), vehicle: olive oil, sesame oil, peanut oil 105 % of control | dose: 100.0 mg/kg/injection, schedule: Q04DX002 (sc), vehicle: olive oil, sesame oil, peanut oil 109 % of control | dose: 200.0 mg/kg/injection, schedule: Q04DX002 (sc), vehicle: olive oil, sesame oil, peanut oil 109 % of control

S=C1SCC(c2ccccc2)S1 (stereo not given)
inactive: [23] 92 % of control | [24] 92 % of control | [25] 89 % of control

CCCCCCCC/C=C\CCCCCCCC(=O)OCCCCCCCCCCCCCCC
inactive: dose: 100.0 mg/kg/injection, schedule: Q01DX009 (ip), vehicle: other 96 % of control | dose: 200.0 mg/kg/injection, schedule: Q01DX009 (ip), vehicle: other 96 % of control | dose: 400.0 mg/kg/injection, schedule: Q01DX009 (ip), vehicle: other 96 % of control

CC(=O)Nc1ccc(OCCOC(=O)Nc2ccccc2C(F)(F)F)cc1
inactive: [10] 91 % of control | [12] 105 % of control | [14] 93 % of control

Oc1ccc(C2SC(c3ccc(O)cc3)SC(c3ccc(O)cc3)S2)cc1 (stereo not given)
inactive: [8] 88 % of control | [9] 88 % of control

O=c1[nH]c(C(F)(F)F)c(Cc2ccccc2)c(=O)[nH]1
inactive: dose: 100.0 mg/kg/injection, schedule: Q01DX001 (ip), vehicle: gum acacia 95 % of control | dose: 200.0 mg/kg/injection, schedule: Q01DX001 (ip), vehicle: gum acacia 107 % of control

COc1ccc([N+](=O)[O-])cc1/C=C/C=O
inactive: [19] 100 % of control | [20] 92 % of control | [21] 100 % of control

From PubChem BioAssay AID248 (DTP/NCI, 2004)
